Laboratory results taken from patent publication US20160095925A1 (CADILA HEALTHCARE LIMITED, priority 2014, published 2016).
Where two headings read alike, the source gives them in different places.

Assays:
[1] = Analytical results of Azacitidine (API), untreated and gamma radiated: description, related substances; assay type: physicochemical
[2] = formation of RGU increased in acidic and basic conditions; cited from earlier work
[3] = cited from earlier work

- Description ([1]; gamma radiated): White to off
- Related Substances: Single max. impurity ([1]; gamma radiated): 0.05%
- Related Substances: Total impurities ([1]; gamma radiated): 0.24%
- Description ([1]; untreated): White to off
- Related Substances: Single max. impurity ([1]; untreated): 0.04%
- Related Substances: Total impurities ([1]; untreated): 0.19%
SMILES: Nc1ncn([C@@H]2O[C@H](CO)[C@@H](O)[C@H]2O)c(=O)n1 [Azacitidine, 4-amino-1-β-D-ribofuranosyl-1,3,5-triazin-2(1H)-one]
- Optimal pH for stable formulation [2]: 6-7
- Solubility ([3]; 5% Tween 80 in water): sparingly soluble
- Solubility ([3]; 5% dextrose in water): sparingly soluble
- Solubility ([3]; N-methyl-2-pyrrolidone): sparingly soluble
- Solubility ([3]; acetone): insoluble
- Solubility ([3]; dimethylsulfoxide (DMSO)): soluble
- Solubility ([3]; ethanol/water (50/50)): slightly soluble
- Solubility ([3]; ethanol): insoluble
- Solubility ([3]; methyl ethyl ketone): insoluble
- Solubility ([3]; normal saline): sparingly soluble
- Solubility ([3]; polyethylene glycol): slightly soluble
- Solubility ([3]; propylene glycol): slightly soluble
- Solubility ([3]; water saturated octanol): sparingly soluble
- Solubility ([3]; water): sparingly soluble
